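Following 48 hours of exposure in 96-well plates, responses at five concentrations were used to interpolate endpoints linearly. At the GI50, growth is halved.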 The source made the active and inactive calls. Rule as the data show it: active = GI50 up to about 1.1 µM and inactive = higher.
How the values were obtained:
Test in all cases: DTP human tumour cell line panel, 48 h
DLD-1 = tested on: DLD-1
DMS-114 = tested on: DMS-114
DMS-273 = tested on: DMS-273
HOP-18 = tested on: HOP-18
KM-20L2 = tested on: KM-20L2
RXF 631 = tested on: RXF 631
SNB-78 = tested on: SNB-78
LXFL 529 = tested on: LXFL 529
XF498 = tested on: XF498

| Structure (SMILES) | GI50 (DLD-1) | GI50 (DMS-114) | GI50 (DMS-273) | GI50 (HOP-18) | GI50 (KM-20L2) | GI50 (RXF 631) | GI50 (SNB-78) | GI50 (LXFL 529) | GI50 (XF498) |
| --- | --- | --- | --- | --- | --- | --- | --- | --- | --- |
| CC1=C(/C=C/C(C)=C/C=C/C(C)=C/C=C/C=C(C)/C=C/C=C(C)/C=C/C2=C(C)C(=O)C(O)CC2(C)C)C(C)(C)CC(O)C1=O (configuration not stated) | > 100 µM (inactive) | > 100 µM (inactive) | > 100 µM (inactive) | > 100 µM (inactive) | > 100 µM (inactive) | > 100 µM (inactive) | > 100 µM (inactive) |  |  |
| CCC(=O)OC1CCn2c1nc1c2C(=O)C(C)=C(N2CC2)C1=O (configuration not stated) | 0.105 µM (active) | 0.12 µM (active) | 0.045 µM (active) | 0.0439 µM (active) | 0.233 µM (active) |  | 0.462 µM (active) | 0.0933 µM (active) | 0.0345 µM (active) |
| CCN(CC)c1ccc(C(=C2C=CC(=[N+](CC)CC)C=C2)c2ccccc2)cc1 | 0.0274 µM (active) | 0.0156 µM (active) | 0.0304 µM (active) |  | 0.0302 µM (active) |  | 0.044 µM (active) | 0.0225 µM (active) | 0.0149 µM (active) |
| c1ccc2c3nc(C4CCCC4)nc-3c(NC3CCCC3)[nH]c2c1 | 30 µM (inactive) | 17.8 µM (inactive) | 8.43 µM (inactive) | 16 µM (inactive) | 5 µM (inactive) |  | 45.3 µM (inactive) | 8.32 µM (inactive) | 19.6 µM (inactive) |
| C=C1COC(O)(C2OCOC(C3CC(=O)NC(=O)C3)C2O)C1C (configuration not stated) | 0.00416 µM (active) | 0.00319 µM (active) | 0.00417 µM (active) | 0.00357 µM (active) | 0.00281 µM (active) | 0.0037 µM (active) | 0.00718 µM (active) | 0.00222 µM (active) | < 0.01 µM (active) |
| O=c1c2cc3ccccc3n2c(=O)c2cc3ccccc3n12 | > 100 µM (inactive) | > 100 µM (inactive) | > 100 µM (inactive) | > 100 µM (inactive) | > 100 µM (inactive) |  | > 100 µM (inactive) | > 100 µM (inactive) | > 100 µM (inactive) |
| Cc1cc(N(CCC#N)S(C)(=O)=O)ccc1C=O | > 100 µM (inactive) | > 100 µM (inactive) | > 100 µM (inactive) | > 100 µM (inactive) | > 100 µM (inactive) |  | > 100 µM (inactive) | > 100 µM (inactive) |  |
| CCOC(=O)/N=c1\ss/c(=N\C(=S)N(C)C)n1-c1ccccc1 | > 10 µM (inactive) | 0.453 µM (active) | 2.15 µM (inactive) | > 10 µM (inactive) | > 10 µM (inactive) |  | 36.3 µM (inactive) | 4.44 µM (inactive) | 28.8 µM (inactive) |
| O=P(c1ccccc1)(c1ccccc1)C1CC=C2CCCCCC2C1 (configuration not stated) |  | 24.5 µM (inactive) | 27.4 µM (inactive) | 19.2 µM (inactive) | > 10 µM (inactive) | 27.2 µM (inactive) | 40.2 µM (inactive) | 21.4 µM (inactive) | 33 µM (inactive) |
| CCC(=O)Nc1nc2c(ncn2C2OC(COC(=O)CC)C(OC(=O)CC)C2OC(=O)CC)c(=O)[nH]1 (configuration not stated) |  |  | > 100 µM (inactive) |  | > 100 µM (inactive) |  | > 100 µM (inactive) | > 100 µM (inactive) |  |
| Cc1nc2ccccc2c(=O)n1-c1ccccc1I | > 100 µM (inactive) | 82.4 µM (inactive) |  |  |  |  | > 100 µM (inactive) | 90.4 µM (inactive) |  |
| O=c1c2cc(Br)ccc2[nH]c(=S)n1-c1ccc(Br)cc1 | > 100 µM (inactive) | > 100 µM (inactive) |  | > 100 µM (inactive) | > 100 µM (inactive) |  | > 100 µM (inactive) | > 100 µM (inactive) |  |
| N#CCCN(CCC#N)c1ccc(/C=N\c2ccc(F)cc2)cc1 | 0.347 µM (active) | 13.8 µM (inactive) | 4.61 µM (inactive) | > 100 µM (inactive) | 0.152 µM (active) | > 45.8 µM (inactive) | > 100 µM (inactive) | 0.121 µM (active) | > 100 µM (inactive) |
| CN(C)C(=N/O)/C(=N\O)N(C)C | > 100 µM (inactive) | > 100 µM (inactive) | > 100 µM (inactive) | > 100 µM (inactive) | > 100 µM (inactive) | > 100 µM (inactive) | > 100 µM (inactive) | > 100 µM (inactive) | > 100 µM (inactive) |
| O=CCCCC(Sc1ccccc1)Sc1ccccc1 | 15.3 µM (inactive) | 23.9 µM (inactive) | 17.3 µM (inactive) |  | 39.5 µM (inactive) | 20.6 µM (inactive) | 15.3 µM (inactive) | 13 µM (inactive) | 19 µM (inactive) |
| COC(=O)C(=O)C(C#N)c1ccc(CC#N)cc1 (configuration not stated) | > 100 µM (inactive) |  | > 100 µM (inactive) |  | > 100 µM (inactive) |  | > 100 µM (inactive) | > 100 µM (inactive) | > 100 µM (inactive) |
| CCOc1ccc(/N=C/c2ccnc3ccccc23)cc1 | 4.57 µM (inactive) | 17.3 µM (inactive) | 28.1 µM (inactive) | > 100 µM (inactive) | 43.7 µM (inactive) |  | > 60.1 µM (inactive) | 16.2 µM (inactive) | > 100 µM (inactive) |
| O=C[C@]12CC=C3OC4OC5(CCCCC5)OC4[C@H]3[C@H]1C(=O)C=CC2=O (some centres not stated) | 17.3 µM (inactive) | 19.1 µM (inactive) | 39.2 µM (inactive) |  |  | 35.6 µM (inactive) | 14.2 µM (inactive) | 19 µM (inactive) | 14.6 µM (inactive) |
| CCCC/C=C/C=C/C=C/CCCCCCCC(=O)OCC(COC(=O)CCCCCCC/C=C/C1C=CC(CCCC)C(C(=O)O)C1C(=O)O)OC(=O)CCCCCCC/C=C/C=C/C=C/CCCC.OCCNCO (configuration not stated) | 20 µM (inactive) | 10.9 µM (inactive) | 16.3 µM (inactive) | 17.2 µM (inactive) | 20.9 µM (inactive) |  |  | 17.8 µM (inactive) |  |
| COc1ccc(/C=C2\SC(c3ccc(OC)cc3)N(NC(=O)Cc3ccccc3)C2=O)cc1 (configuration not stated) | > 100 µM (inactive) | > 100 µM (inactive) | > 100 µM (inactive) | > 100 µM (inactive) |  |  |  | > 100 µM (inactive) |  |
| O=C(CC1=Nc2nnc(-c3nnc4n3C(=O)C(CC(=O)c3cccnc3)=N4)n2C1=O)c1cccnc1 | > 100 µM (inactive) | > 100 µM (inactive) | > 100 µM (inactive) |  | > 100 µM (inactive) | > 100 µM (inactive) | > 100 µM (inactive) | > 100 µM (inactive) |  |
| CS(=O)(=O)N(CCC#N)c1ccc(/C=C2\N=C(c3ccccc3Cl)OC2=O)cc1 | > 100 µM (inactive) | > 100 µM (inactive) | > 100 µM (inactive) |  | > 100 µM (inactive) |  | > 100 µM (inactive) | > 100 µM (inactive) | > 100 µM (inactive) |
| CCC1(O)C(=O)OCc2c1cc1n(c2=O)Cc2cc3ccc(C=O)cc3nc2-1 (configuration not stated) | 12.4 µM (inactive) | 0.607 µM (active) | 0.484 µM (active) | 3.47 µM (inactive) | 5.68 µM (inactive) | 2.38 µM (inactive) | 19.9 µM (inactive) | 12.8 µM (inactive) | 2.7 µM (inactive) |
| C[C@@]12CCC(=O)c3coc(c31)C(=O)c1cc3c(cc12)C(=O)C=CC3=O [HELENAQUINONE] | 15.4 µM (inactive) | 14 µM (inactive) | 15.5 µM (inactive) | 17.3 µM (inactive) | > 86.5 µM (inactive) |  | 22 µM (inactive) | 17.4 µM (inactive) | 18.9 µM (inactive) |
| COc1ccc(CC(C)N)cc1 (configuration not stated) [PARA-METHOXYAMPHETAMINE] | > 100 µM (inactive) | > 100 µM (inactive) | > 100 µM (inactive) | > 100 µM (inactive) | > 100 µM (inactive) | > 100 µM (inactive) | > 100 µM (inactive) | > 100 µM (inactive) | > 100 µM (inactive) |
